Laboratory results from patent publication US11707442B2, “Antibacterial and antifungal compounds” (The General Hospital Corporation, priority 2015, dated 2023).
Read-outs that look alike come from different tables or passages of the source.

Experiments:
S. aureus = assay: Minimal inhibitory concentration (MIC), broth microdilution; assay type: cell-based, Staphylococcus aureus; details: Staphylococcus aureus
Source text: (§1) Bacterial strains and growth conditions and persister isolation: methicillin-resistant S. aureus (MRSA) strain MW2 BAA-1707, vancomycin-resistant S. aureus strain VRS 1, 11 clinical S. aureus isolates, 8 clinical Enterococcus faecium isolates, Klebsiella pneumoniae WGLW2 (BEI Resources, Manassas, Va., USA), Acinetobacter baumannii ATCC 17978, Pseudomonas aeruginosa PA14, and Enterobacter aerogenes ATCC 13048 were used to test antimicrobial activity (See Table 1a). S. aureus and E. faecium strains were grown in tryptic soy broth (TSB) (BD, Franklin Lakes, N.J., USA) or brain-heart infusion (BHI) broth (BD, Franklin Lakes, N.J., USA), respectively at 37° C. at 225 rpm. K. pneumoniae, A. baumannii, P. aeruginosa, and E. aerogenes were grown in Luria Bertani (LB) broth (BD, Franklin Lakes, N.J., USA).
(§2) To test the bacterial MICs for compounds described herein, the total volume in each well was 100 μl of test compounds and bacterial cells in MH broth. […] The bacterial concentration was adjusted to an initial OD600 of 0.03. After incubation at 35° C. for 18 hrs, the absorbance was measured at 595 nm in accordance with CLSI document M07-A8. The MICs of antibiotics were determined by the standard microdilution method recommended by the Clinical and Laboratory Standards Institute.

P. aeruginosa = assay: MIC, broth microdilution; assay type: cell-based, Pseudomonas aeruginosa; details: Pseudomonas aeruginosa, PA14, read-out: Minimum inhibitory concentration
Source text: as §1, §2

A. baumannii = assay: MIC, broth microdilution; assay type: cell-based, Acinetobacter baumannii; details: Acinetobacter baumannii, ATCC17978, read-out: Minimum inhibitory concentration
Source text: as §1, §2

E. aerogenes ATCC 13048 = assay: MIC, broth microdilution; assay type: cell-based, Enterobacter aerogenes; details: Klebsiella aerogenes, ATCC13048, read-out: Minimum inhibitory concentration
Source text: as §1, §2

E. faecium = assay: MIC, broth microdilution; assay type: cell-based, Enterococcus faecium; details: Enterococcus faecium
Source text: as §1, §2

[1] = tested on: S. aureus MW2 (MRSA) in neutropenic mouse thigh; details: previous study (Conlon 2013); cited from earlier work
K. pneumonia WGLW2 = assay: MIC, broth microdilution; assay type: cell-based, Klebsiella pneumoniae; details: Klebsiella pneumoniae, WGLW2, read-out: Minimum inhibitory concentration
Source text: as §1, §2

CN[C@H](CC(C)C)C(=O)N[C@H]1C(=O)N[C@@H](CC(N)=O)C(=O)N[C@H]2C(=O)N[C@H]3C(=O)N[C@H](C(=O)N[C@H](C(=O)O)c4cc(O)cc(O)c4-c4cc3ccc4O)[C@H](O)c3ccc(c(Cl)c3)Oc3cc2cc(c3O[C@@H]2O[C@H](CO)[C@@H](O)[C@H](O)[C@H]2O[C@H]2C[C@](C)(N)[C@H](O)[C@H](C)O2)Oc2ccc(cc2Cl)[C@H]1O [Vancomycin, vancomycin]
0.5 µg/mL: MIC (S. aureus; S. aureus MW2 mutant SP1-8 (graS)) | MIC (S. aureus; S. aureus MW2 mutant SP1-48 (graS, manA)) | MIC (S. aureus; S. aureus MW2 mutant SP1-74 (graS, manA, MW2474)) | MIC (S. aureus; S. aureus MW2 mutant SP1-100 (graS, manA, MW2474)) | MIC (S. aureus; S. aureus MW2 mutant SP2-52 (yjbH, dltB)) | MIC (S. aureus; S. aureus MW2 mutant SP2-59 (yjbH, dltB, manA)) | MIC (S. aureus; S. aureus MW2 mutant SP2-65 (yjbH, dltB, manA, MW1685)) | MIC (S. aureus; S. aureus MW2 mutant SP2-100 (yjbH dltB, manA, MW1685)) | MIC (S. aureus; read-out: Minimum inhibitory concentration, S. aureus BF4) | MIC (S. aureus; read-out: Minimum inhibitory concentration, S. aureus BF5) | MIC (S. aureus; read-out: Minimum inhibitory concentration, S. aureus BF6) | MIC (S. aureus; read-out: Minimum inhibitory concentration, S. aureus BF7) | MIC (S. aureus; read-out: Minimum inhibitory concentration, S. aureus BF8) | MIC (S. aureus; read-out: Minimum inhibitory concentration, S. aureus BF9) | MIC (S. aureus; read-out: Minimum inhibitory concentration, S. aureus BF10)
1 µg/mL: MIC (S. aureus; S. aureus MW2 mutant SP2-13 (yjbH)) | MIC (S. aureus; S. aureus MW2 serial passage culture SP1-1 (no mutated gene)) | MIC (S. aureus; S. aureus MW2 serial passage culture SP2-1 (no mutated gene)) | MIC (S. aureus; read-out: Minimum inhibitory concentration, S. aureus BF1) | MIC (S. aureus; read-out: Minimum inhibitory concentration, S. aureus BF2) | MIC (S. aureus; read-out: Minimum inhibitory concentration, S. aureus BF3) | MIC (S. aureus; read-out: Minimum inhibitory concentration, S. aureus BF11) | MIC (S. aureus; read-out: Minimum inhibitory concentration, S. aureus MW2) | MIC (E. faecium; read-out: Minimum inhibitory concentration, E. faecium D24) | MIC (E. faecium; read-out: Minimum inhibitory concentration, E. faecium D25) | MIC (E. faecium; read-out: Minimum inhibitory concentration, E. faecium E007)
2 µg/mL: MIC (S. aureus; read-out: Drug MIC, Staphylococcus aureus clinical isolate BF1 (Table 5)) | MIC (S. aureus; read-out: Drug MIC, Staphylococcus aureus clinical isolate BF2 (Table 5)) | MIC (S. aureus; read-out: Drug MIC, Staphylococcus aureus clinical isolate BF4 (Table 5)) | MIC (S. aureus; read-out: Drug MIC, Staphylococcus aureus clinical isolate BF5 (Table 5)) | MIC (S. aureus; read-out: Drug MIC, Staphylococcus aureus clinical isolate BF6 (Table 5)) | MIC (S. aureus; read-out: Drug MIC, Staphylococcus aureus clinical isolate BF7 (Table 5)) | MIC (S. aureus; read-out: Drug MIC, Staphylococcus aureus clinical isolate BF8 (Table 5)) | MIC (S. aureus; read-out: Drug MIC, Staphylococcus aureus clinical isolate BF9 (Table 5)) | MIC (S. aureus; read-out: Drug MIC, Staphylococcus aureus clinical isolate BF10 (Table 5)) | MIC (S. aureus; read-out: Drug MIC, Staphylococcus aureus clinical isolate BF11 (Table 5)) | MIC (E. faecium; read-out: Minimum inhibitory concentration, E. faecium D14) | MIC (E. faecium; read-out: Minimum inhibitory concentration, E. faecium D29)
> 64 µg/mL: MIC (S. aureus; read-out: Minimum inhibitory concentration, S. aureus VRS1) | MIC (P. aeruginosa) | MIC (A. baumannii) | MIC (E. aerogenes ATCC 13048) | MIC (K. pneumonia WGLW2)
64 µg/mL: MIC (E. faecium; read-out: Minimum inhibitory concentration, E. faecium C68) | MIC (E. faecium; read-out: Minimum inhibitory concentration, E. faecium WC176)
4 µg/mL: MIC (S. aureus; read-out: Drug MIC, Staphylococcus aureus clinical isolate BF3 (Table 5))
unable to significantly reduce: reduction of MRSA CFUs in the deep-seated mouse thigh infection model [1]
16 µg/mL: MIC (E. faecium; read-out: Minimum inhibitory concentration, E. faecium WB213)
